Like-named read-outs stand apart in the source and are kept apart here.
Tests used:
Human BACE1 = biological target: T1, Human BACE1 (Homo sapiens, UniProt P56817); assay: Diluted TR-FRET assay; assay type: biochemical; details: 50 times less enzyme, 6.5 h reaction time at r.t.; read-out: IC50 BACE1 (dil. TR-FRET)
T1 construct: the soluble part of the human β-Secretase1 (AA1-AA460) was cloned using the BACE1(1-460)-(AVT)-Fc-pGEN-IRES-neo mammalian expression vector; AVT linker (C); made in house
T1 sequence (P56817 22-460): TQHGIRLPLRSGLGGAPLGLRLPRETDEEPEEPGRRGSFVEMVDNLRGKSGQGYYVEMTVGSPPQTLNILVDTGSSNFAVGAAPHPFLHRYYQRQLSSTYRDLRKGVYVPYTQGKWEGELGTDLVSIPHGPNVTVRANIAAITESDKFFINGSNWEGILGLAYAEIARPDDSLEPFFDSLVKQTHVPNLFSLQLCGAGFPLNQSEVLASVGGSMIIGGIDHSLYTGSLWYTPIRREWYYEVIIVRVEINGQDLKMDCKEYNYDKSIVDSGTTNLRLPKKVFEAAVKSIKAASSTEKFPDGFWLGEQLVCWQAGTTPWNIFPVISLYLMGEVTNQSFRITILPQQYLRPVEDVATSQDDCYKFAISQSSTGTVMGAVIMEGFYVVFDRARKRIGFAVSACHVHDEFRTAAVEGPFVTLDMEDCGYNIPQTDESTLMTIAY
How it was run: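 Human BACE1 (residues 1-460) was fused to an IgG1 Fc affinity tag and stably expressed in HEK 293 cells. Using a Multidrop Combi, 7 μL enzyme was added to 0.8 μL compound in dimethylsulphoxide and incubated 10 minutes. Reactions were stopped with 5.5 μL NaOAC Stop solution (pH 9), and TR-FRET fluorescence was read on a Pherastar HTRF module.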

Human BACE2 = biological target: T2, Human BACE2 (Homo sapiens, UniProt Q9Y5Z0); assay: TR-FRET assay; assay type: biochemical; details: substrate 100 nM, pH4.5
T2 construct: the soluble part of the human β-Secretase2 (AA1-AA473) was cloned using BACE2(1-473)-(AVT)-Fc-pDEST12.2 mammalian expression vector; AVT linker (C); made in house
T2 sequence (Q9Y5Z0 21-473): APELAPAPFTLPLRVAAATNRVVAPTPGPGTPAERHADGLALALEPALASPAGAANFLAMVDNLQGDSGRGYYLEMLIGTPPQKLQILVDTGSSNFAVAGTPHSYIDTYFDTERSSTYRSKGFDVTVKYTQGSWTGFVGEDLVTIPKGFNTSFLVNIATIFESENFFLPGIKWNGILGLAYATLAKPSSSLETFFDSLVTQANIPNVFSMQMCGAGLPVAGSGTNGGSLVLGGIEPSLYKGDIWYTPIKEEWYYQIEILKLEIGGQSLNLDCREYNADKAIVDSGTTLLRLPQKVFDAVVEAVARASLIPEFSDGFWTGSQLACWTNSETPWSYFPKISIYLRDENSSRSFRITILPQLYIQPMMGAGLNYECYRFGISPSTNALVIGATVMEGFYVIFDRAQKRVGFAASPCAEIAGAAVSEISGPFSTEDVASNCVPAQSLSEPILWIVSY

SH-SY5Y cells = assay: sAPPβ release assay
Procedure: Cells were thawed and seeded at a concentration of around 10000 cells/well in DMEM/F-12 with Glutamax, 10% FCS and 1% non-essential amino acids to a 384-well tissue culture treated plate, 30 μL cell susp/well. The cell plates were then incubated for 7-24 h at 37° C., 5% CO2.
The cell medium was removed, followed by addition of 50 μL compound diluted in DMEM/F-12 with Glutamax, 10% FCS, 1% non-essential amino acids to a final cone of 0.5% DMSO. The compounds were incubated with the cells for 16-17 h (overnight) at 37° C., 5% CO2.
Meso Scale Discovery (MSD) plates were used for the detection of sAPP release. MSD sAPPβ plates were blocked in 1% BSA in Tris wash buffer for 1 h on shake at r.t. and washed 1 time in Tris wash buffer. […] The MSD plates were incubated with shaking at r.t. for 2 h and the media discarded. 10 μL detection antibody was added (1 nM) per well followed by incubation with shaking at r.t. for 2 h and then discarded. 35 μL Read Buffer was added per well and the plates were read in a Meso Scale Discovery SECTOR6000 Imager.

[1] = Homo sapiens, SH-SY5Y, read-out: IC50 Cell (sAPPβ release, nM), SH-SY5Y cells, compounds incubated 16-17 h
[2] = read-out: IC50 Cell (sAPPβ release), SH-SY5Y cells, compounds incubated 16-17 h

## [2H]C1([2H])OC(N)=N[C@]12c1cc(C#N)ccc1C[C@]21CC[C@@H](OC)[C@H](C)C1 [Compound 119, {(1R,1′R,3R,4R)-6′-cyano-4-methoxy-3-methyl-3′H,5″H-dispiro[cyclohexane-1,2′-indene-1′,4″-oxazol]-5″,5″-d2-2″-amine}]
Human BACE1
  IC50: 294 nM
Human BACE2; enzyme 2.7 μg/mL
  IC50: 1090 nM
SH-SY5Y cells; [1]
  IC50: 13 nM

## [2H]C1([2H])OC(N)=N[C@]12c1cc(C#N)ccc1C[C@@]21CC[C@H](OC)[C@@H](C)C1 [Compound 120, {(1S,1′R,3S,4S)-6′-cyano-4-methoxy-3-methyl-3′H,5″H-dispiro[cyclohexane-1,2′-indene-1′,4″-oxazol]-5″,5″-d2-2″-amine}]
Human BACE1
  IC50: 191 nM
Human BACE2; enzyme 2.7 μg/mL
  IC50: 1630 nM
SH-SY5Y cells; [1]
  IC50: 7 nM

## (1r,3R,4r,5S)-4-methoxy-3,5-dimethyl-6′-(5-(trifluoromethyl)pyridin-3-yl)-3′H,5″H-dispiro[cyclohexane-1,2′-indene-1′,4″-oxazol]-2″-amine [Compound 30]
Human BACE1
  IC50: 169 nM
Human BACE2; enzyme […]
  IC50: 344 nM
SH-SY5Y cells; [2]
  IC50: 11.3 nM

## (1′R,4′S)-4′-methoxy-6″-(pyridin-3-yl)-3″H,5′″H-trispiro[cyclopropane-1,3′-cyclohexane-1′,2″-indene-1″,4′″-oxazol]-5′″,5′″-d2-2′″-amine and (1′S,4′R)-4′-methoxy-6″-(pyridin-3-yl)-3″H,5′″H-trispiro[cyclopropane-1,3′-cyclohexane-1′,2″-indene-1″,4′″-oxazol]-5′″,5′″-d2-2′″-amine [Compound 87]
Human BACE1
  IC50: 262 nM
Human BACE2; enzyme […]
  IC50: 3480 nM
SH-SY5Y cells; [2]
  IC50: 4.7 nM

## (1′R,4′S)-4′-methoxy-6″-(pyrimidin-5-yl)-3″H,5′″H-trispiro[cyclopropane-1,3′-cyclohexane-1′,2″-indene-1″,4′″-oxazol]-5′″,5′″-d2-2′″-amine and (1′S,4′R)-4′-methoxy-6″-(pyrimidin-5-yl)-3″H,5′″H-trispiro[cyclopropane-1,3′-cyclohexane-1′,2″-indene-1″,4′″-oxazol]-5′″,5′″-d2-2′″-amine [Compound 86]
Human BACE1
  IC50: 144 nM
Human BACE2; enzyme […]
  IC50: 4750 nM
SH-SY5Y cells; [2]
  IC50: 5.9 nM
